Source: patent US20210222105A1, “A Microfluidic Cartridge, A Kit And An Assay” (CENTRE FOR CELLULAR AND MOLECULAR PLATFORMS, priority 2018, published 2021)

Tests used:
Assay type in all cases: cell-based, Escherichia coli
[1] = tested on: E. coli; assay: Agent susceptibility test in microfluidic cartridge with DNA-based pH sensor (FRET, donor fluorescence); settings: 5×10^5 CFU/ml, 37° C., up to 6 hour incubation, FIGS. 17, 19
Description: About 5 μM sensor was prepared and stored at about 4° C. overnight for equilibration of the sensors. Overnight grown cultures of E. coli, S. aureus, E. faecalis was picked from LB agar plate and dispersed in cation adjusted Mueller Hinton broth with 1% glucose. The concentration of the cells were adjusted to 0.5 MFU. antibiotic dilution was prepared according to CSI guidelines. Stock solutions were prepared in 96 well plate using 23 μl of cation adjusted Muller Hinton broth, 25 μl of desired concentration of antibiotic and 2 μl of 5 μM sensors. Then 50 μl of 1×10^6 CFU/ml inoculum was added in wells to achieve inoculum size 5×10^5 CFU/ml in final assay volume. Each stock solution was loaded on microfluidic cartridge. Microfluidic cartridge was sealed with polypropylene sealing film and incubated at 37° C. with 70% humidity. The change in the donor fluorescence intensity was recorded till 6 hour incubation. Each microchamber of the microfluidic cartridge was image using 1×73 Olympus inverted fluorescence microscope. Images were analyzed using ImageJ version 1.8.0. the average was taken over replicate and standard deviation was calculated (illustrated in FIG. 18).

[2] = tested on: E. coli ATCC 25922 QC strain; assay: Qualitative phenol red colour-change test of microbial growth in microfluidic cartridge and 96 well plate; settings: 37° C., results in 3 hour, FIG. 15
Description: Qualitative test was performed to check microbial growth in the microfluidic cartridge. Phenol red (about 0.05% w/v) containing cation adjusted Muller Hinton broth was used as susceptibility indicator. Microbial growth changes pH and Phenol red changes color with pH variation. Thus, a colour change could provide a read-out on the susceptibility or resistance of a microorganism. No color change would indicate no growth as a response to antibiotics. Briefly, microfluidic cartridge was cleaned with water and then rinsed with 70% ethanol and then UV sterilized by exposing under UV light for about 30 minutes. To compare the susceptibility test preformed on the microfluidic cartridge and 96 well plate, master mix of about 150 μl was prepared on 96 well plate and 6 μl o the master mix was used in microchamber of the microfluidic cartridge. Both 96 well plate and microfluidic cartridge was sealed with lamination film and incubated at 37° C. and change in color intensity was recorded (illustrated in FIG. 15). […] The results were obtained in 3 hour and design of the microfluidic cartridge was suitable for microbial growth and no cross contamination was observed.

[3] = tested on: E. coli ATCC 25922; assay: Agent susceptibility phenotypic assay, microfluidic cartridge compared with 96 well plate; settings: 0.5, 1, 2 and 4 μg/ml tested; 0.5 MCF inoculum; cation adjusted Muller Hinton broth; FIG. 14
Description: The agent susceptibility assay was carried out in a microfluidic cartridge. This assay was also carried out in a micro-titer plate as a standard reference control. Bacterial/clinical sample grown at suitable turbidity or at least about 0.3 to about 1.0 McFarland unit was transferred to the microchamber. The microchamber had microbial growth sensors (pH sensor) at concentration of about 5 μM to about 50 μM, cation adjusted Muller Hinton broth or suitable microbial growth media, and antibiotics concentration based on CLSI guidelines. The total reaction volume range was from about 6 μl to about 150 μl. Plate/test card were sealed using plate sealer or lamination film and incubated at about 32° C. to about 37° C., at about 300-500 rpm orbital shaking. The change in the fluorescence intensity of pH sensors was measured using fluorescence reader after every 20-60 minutes till about 4-7 hours incubation period. Thus, the susceptibility or resistance of the microorganism was assessed towards the agent.
Agent susceptibility was tested on microfluidic cartridge and the outcome compared with optimized 96 well plate. Phenotypic assay was optimized on 96 well pate, briefly, an overnight grown E. coli ATCC25922 culture was dispersed in cation adjusted muller Hinton broth to prepare inoculum of 0.5 MCF unit.

Compound | sensitivity cut of value [1] | change in colour of indicator dye (phenol red) ([2]; amikacin concentration above 2 μg/ml) | change in colour of indicator dye (phenol red) ([2]; at 0.5 and 1 ug/ml amikacin) | amikacin concentration at which E. coli ATCC 25922 showed susceptibility [3] [µg/mL]
CCN1CCN(C(=O)N[C@@H](C(=O)N[C@@H]2C(=O)N3[C@@H]2SC(C)(C)[C@@H]3C(=O)O)c2ccccc2)C(=O)C1=O [piperacillin] | about 2 μg/ml |  |  | 
NCC[C@H](O)C(=O)N[C@@H]1C[C@H](N)[C@@H](O[C@H]2O[C@H](CN)[C@@H](O)[C@H](O)[C@H]2O)[C@H](O)[C@H]1O[C@H]1O[C@H](CO)[C@@H](O)[C@H](N)[C@H]1O [amikacin] |  | no change in the color intensity | change in the color of indicator dye | 2
